Assay results as given in US20240075108A1, “HEPATOCELLULAR CARCINOMA TREATMENTS, PROPHYLACTIC THERAPIES, AND COMPOSITIONS FOR USE THEREWITH” (REPAIR BIOTECHNOLOGIES, INC., priority 2020, published 2024).

Experiments:
[1] = tested on: CDP-Hep3B cells; experiment: MTT cell viability assay with sorafenib, CDP-Hep3B cells; type: cell-based; conditions: Homo sapiens, 12000 cells/well, 48 hours, n=3 independent experiments, read-out: calculated IC50 (cell viability)
Method: (§1) Human Hep3B hepatocellular carcinoma cells (from ATCC at www.atcc.org/products/all/HB-8064.aspx) were grown in Eagle's minimum essential media (EMEM) supplemented with 10% heat-inactivated FBS, PenStrep (100 units/mL//[…]) and 2mM L-Glutamine.
(§2) Hep3B cells were transduced with either empty lentivirus (MOI=5) or lentivirus harboring CDP (MOI=5). Transduced cells were selected by growth in puromycin (4 μg/mL) to establish stable cell lines of Mock-Hep3B (empty lentivirus) and CDP-Hep3B (lentivirus containing CDP). FIG. 1 is a representative western blot showing the expression of Flag-tagged CDP in CDP-Hep3B cells (“CDP”) and not in Mock-Hep3B cells (“Mock”). […]
(§3) The growth and viability of Mock- and CDP-Hep3B cells were assessed by cell proliferation assay, using the tetrazolium salt 3-[4,5-di-methylthiazol-2yl]-2,5-diphenyl-tetrazolium bromide (MTT) reagent (resources.rndsystems.com/pdfs/datasheets/4890-025-k.pdf). […] Detergent reagent was then added to each well to solubilize the formazan dye prior to measuring the absorbance of each sample in a microplate reader at 570 nm.
(§4) Growth rates of stable cell lines were also obtained in the presence of Sorafenib. […] Cell viability was assessed using the MTT assay after 48 hours as described above.

[2] = tested on: Mock-Hep3B cells; experiment: MTT cell viability assay with sorafenib, Mock-Hep3B cells; type: cell-based; conditions: Homo sapiens, 12000 cells/well, 48 hours, n=3 independent experiments, read-out: calculated IC50 (cell viability)
Method: as §1, §2, §3, §4

SMILES: CNC(=O)c1cc(Oc2ccc(NC(=O)Nc3ccc(Cl)c(C(F)(F)F)c3)cc2)ccn1 [sorafenib, Sorafenib]
- IC50 [1]: 4.64 ± 0.16 µM
- IC50 [2]: 4.76 ± 0.62 µM
